According to patent US20240158348A1, “HERBICIDAL CYCLIC AMIDES N-SUBSTITUTED WITH A HALOALKYLSULFONYLANILIDE GROUP” (FMC Corporation, priority 2021, published 2024):

Legend:
Assay type in all cases: in vivo
[1] = tested on: foxtail, giant (giant foxtail, Setaria faberi); assay: Test C postemergence, giant foxtail
Excerpt: (§1) Seeds of plant species selected from blackgrass (Alopecurus myosuroides), corn (Zea mays), foxtail, giant (giant foxtail, Setaria faberi), goosegrass (Eleusine indica), kochia (Bassia scoparia), oat, wild (wild oat, Avena fatua), pigweed, palmer (palmer amaranth, Amaranthus palmeri), ragweed (common ragweed, Ambrosia artemisiifolia), ryegrass, Italian (Italian ryegrass, Lolium multiflorum), soybean (Glycine max) and wheat (Triticum aestivum) were planted into a blend of loam soil and sand and treated preemergence with a directed soil spray using test chemicals formulated in a non-phytotoxic solvent mixture which included a surfactant.
(§2) At the same time, plants selected from these crop and weed species and also galium (catchweed bedstraw, Galium aparine) and horseweed (Erigeron canadensis) were planted in pots containing the same blend of loam soil and sand and treated with postemergence applications of test chemicals formulated in the same manner. Plants ranged in height from 2 to 10 cm and were in the one- to two-leaf stage for the postemergence treatment. Treated plants and untreated controls were maintained in a greenhouse for 10 or 12 days, after which time all treated plants were compared to untreated controls and visually evaluated for injury. Plant response ratings, summarized in Table A, are based on a 0 to 100 scale where 0 is no effect and 100 is complete control. A dash (-) response means no test result.

[2] = tested on: oat, wild (wild oat, Avena fatua); assay: Test C postemergence, wild oat
Excerpt: as §1, §2

[3] = tested on: corn (Zea mays); assay: Test C preemergence, corn; settings: 0 is no effect, 100 is complete control
Excerpt: as §1, §2

[4] = tested on: soybean (Glycine max); assay: Test C postemergence, soybean; settings: visual injury, 0 to 100 scale (0 no effect, 100 complete control)
Excerpt: as §1, §2

[5] = tested on: rice (Oryza sativa); assay: Test D flooded paddy test, rice; set-up: key: 0 = no effect, 100 = complete control; settings: 250 g ai/ha, Flood; applied to paddy water at 2-leaf stage; visual rating after 13 days; scale 0 (no effect) to 100 (complete control)
Protocol: (§3) Plant species in the flooded paddy test selected from barnyardgrass (Echinochloa crusgalli), ducksalad (Heteranthera limosa), rice (Oryza sativa), and sedge, umbrella (small-flower umbrella sedge, Cyperus difformis) were grown to the 2-leaf stage for testing. At time of treatment, test pots were flooded to 3 cm above the soil surface, treated by application of test compounds directly to the paddy water, and then maintained at that water depth for the duration of the test. Treated plants and controls were maintained in a greenhouse for 13 days, after which time all species were compared to controls and visually evaluated. Plant response ratings, summarized in Table B, are based on a scale of 0 to 100 where 0 is no effect and 100 is complete control. A dash (-) response means no test result.

[6] = tested on: sedge, umbrella (small-flower umbrella sedge, Cyperus difformis); assay: Test D flooded paddy test, umbrella sedge; set-up: key: 0 = no effect, 100 = complete control; settings: 250 g ai/ha, Flood; applied to paddy water at 2-leaf stage; visual rating after 13 days; scale 0 (no effect) to 100 (complete control)
Protocol: as §3

[7] = tested on: blackgrass (Alopecurus myosuroides); assay: Test C postemergence, blackgrass; settings: 31 g ai/ha Postemergence; visual injury, 0 to 100 scale (0 no effect, 100 complete control)
Excerpt: as §1, §2

[8] = tested on: ducksalad (Heteranthera limosa); assay: Test D flooded paddy test, ducksalad; set-up: key: 0 = no effect, 100 = complete control; settings: 250 g ai/ha, Flood; applied to paddy water at 2-leaf stage; visual rating after 13 days; scale 0 (no effect) to 100 (complete control)
Protocol: as §3

[9] = tested on: ragweed (common ragweed, Ambrosia artemisiifolia); assay: Test C postemergence, ragweed; settings: visual injury, 0 to 100 scale (0 no effect, 100 complete control)
Excerpt: as §1, §2

[10] = tested on: barnyardgrass (Echinochloa crusgalli); assay: Test D flooded paddy test, barnyardgrass; set-up: key: 0 = no effect, 100 = complete control; settings: 250 g ai/ha, Flood; applied to paddy water at 2-leaf stage; visual rating after 13 days; scale 0 (no effect) to 100 (complete control)
Protocol: as §3

[11] = tested on: wheat (Triticum aestivum); assay: Test C postemergence, wheat; settings: visual injury, 0 to 100 scale (0 no effect, 100 complete control)
Excerpt: as §1, §2

[12] = tested on: wheat (Triticum aestivum); assay: Test C preemergence, wheat; settings: 0 is no effect, 100 is complete control
Excerpt: as §1, §2

[13] = tested on: blackgrass (Alopecurus myosuroides); assay: Test C postemergence, blackgrass; settings: 125 g ai/ha Postemergence; 0 is no effect, 100 is complete control
[14] = tested on: ryegrass, Italian (Italian ryegrass, Lolium multiflorum); assay: Test C preemergence, Italian ryegrass; settings: 0 is no effect, 100 is complete control
Excerpt: as §1, §2

[15] = tested on: blackgrass (Alopecurus myosuroides); assay: Test C preemergence, blackgrass; settings: 0 is no effect, 100 is complete control
Excerpt: as §1, §2

[16] = tested on: pigweed, palmer (palmer amaranth, Amaranthus palmeri); assay: Test C postemergence, palmer amaranth; settings: visual injury, 0 to 100 scale (0 no effect, 100 complete control)
Excerpt: as §1, §2

[17] = tested on: ryegrass, Italian (Italian ryegrass, Lolium multiflorum); assay: Test C postemergence, Italian ryegrass; settings: visual injury, 0 to 100 scale (0 no effect, 100 complete control)
Excerpt: as §1, §2

[18] = tested on: kochia (Bassia scoparia); assay: Test C preemergence, kochia; settings: 0 is no effect, 100 is complete control
Excerpt: as §1, §2

[19] = tested on: kochia (Bassia scoparia); assay: Test C postemergence, kochia
Excerpt: as §1, §2

[20] = tested on: corn (Zea mays); assay: Test C postemergence, corn
Excerpt: as §1, §2

[21] = tested on: pigweed, palmer (palmer amaranth, Amaranthus palmeri); assay: Test C preemergence, palmer amaranth; settings: 0 is no effect, 100 is complete control
Excerpt: as §1, §2

[22] = tested on: goosegrass (Eleusine indica); assay: Test C postemergence, goosegrass
Excerpt: as §1, §2

[23] = tested on: galium (catchweed bedstraw, Galium aparine); assay: Test C postemergence, galium
Excerpt: as §1, §2

[24] = tested on: ragweed (common ragweed, Ambrosia artemisiifolia); assay: Test C preemergence, ragweed; settings: 0 is no effect, 100 is complete control
Excerpt: as §1, §2

[25] = tested on: goosegrass (Eleusine indica); assay: Test C preemergence, goosegrass; settings: 0 is no effect, 100 is complete control
Excerpt: as §1, §2

[26] = tested on: oat, wild (wild oat, Avena fatua); assay: Test C preemergence, wild oat; settings: 0 is no effect, 100 is complete control
Excerpt: as §1, §2

[27] = tested on: foxtail, giant (giant foxtail, Setaria faberi); assay: Test C preemergence, giant foxtail; settings: 0 is no effect, 100 is complete control
Excerpt: as §1, §2

[28] = tested on: soybean (Glycine max); assay: Test C preemergence, soybean; settings: 0 is no effect, 100 is complete control
Excerpt: as §1, §2

[29] = 31 g ai/ha Postemergence, visual injury, 0 to 100 scale (0 no effect, 100 complete control)
[30] = 125 g ai/ha Postemergence, 0 is no effect, 100 is complete control

With `Cc1c(NS(=O)(=O)C(F)(F)F)cc(N2CCC(OC3CC3)C2=O)c(C)c1F` (centres unmarked) [Compound 26] the “Foxtail, Giant plant response rating” value [1, 29] was 40, the “Plant response rating (0 to 100 scale), Foxtail, Giant” value [1, 30] was 90 and the “Oat, Wild plant response rating” value [2, 29] was 20. The “Plant response rating (0 to 100 scale), Oat, Wild” value [2, 30] was 50, the “Plant response rating (0 to 100 scale), Corn” value ([3]; 31 g ai/ha Preemergence) was 60 and the “Plant response rating (0 to 100 scale), Corn” value ([3]; 125 g ai/ha Preemergence) was 90. For the same compound, the “Soybean plant response rating” value ([4]; 31 g ai/ha Postemergence) was 70, the “Soybean plant response rating” value ([4]; 125 g ai/ha Postemergence) was 100 and the “Plant response rating, Rice” value [5] was 65. For the same compound, the “Plant response rating, Sedge, Umbrella” value [6] was 95, the “Blackgrass plant response rating” value [7] was 40 and the “Plant response rating, Ducksalad” value [8] was 75. The “Ragweed plant response rating” value ([9]; 31 g ai/ha Postemergence) was 60, the “Ragweed plant response rating” value ([9]; 125 g ai/ha Postemergence) was 80 and the “Plant response rating, Barnyardgrass” value [10] was 30. For the same compound, the “Wheat plant response rating” value ([11]; 31 g ai/ha Postemergence) was 60, the “Wheat plant response rating” value ([11]; 125 g ai/ha Postemergence) was 70 and the “Plant response rating (0 to 100 scale), Wheat” value ([12]; 31 g ai/ha Preemergence) was 60. For the same compound, the “Plant response rating (0 to 100 scale), Wheat” value ([12]; 125 g ai/ha Preemergence) was 100, the “Plant response rating (0 to 100 scale), Blackgrass” value [13] was 90 and the “Plant response rating (0 to 100 scale), Ryegrass, Italian” value ([14]; 31 g ai/ha Preemergence) was 90. For the same compound, the “Plant response rating (0 to 100 scale), Ryegrass, Italian” value ([14]; 125 g ai/ha Preemergence) was 100, the “Plant response rating (0 to 100 scale), Blackgrass” value ([15]; 31 g ai/ha Preemergence) was 70 and the “Plant response rating (0 to 100 scale), Blackgrass” value ([15]; 125 g ai/ha Preemergence) was 90. For the same compound, the “Pigweed, Palmer plant response rating” value ([16]; 31 g ai/ha Postemergence) was 70, the “Pigweed, Palmer plant response rating” value ([16]; 125 g ai/ha Postemergence) was 90 and the “Ryegrass, Italian plant response rating” value ([17]; 31 g ai/ha Postemergence) was 60. The “Ryegrass, Italian plant response rating” value ([17]; 125 g ai/ha Postemergence) was 100, the “Plant response rating (0 to 100 scale), Kochia” value ([18]; 31 g ai/ha Preemergence) was 100 and the “Plant response rating (0 to 100 scale), Kochia” value ([18]; 125 g ai/ha Preemergence) was 100. For the same compound, the “Kochia plant response rating” value [19, 29] was 70, the “Plant response rating (0 to 100 scale), Kochia” value [19, 30] was 90 and the “Corn plant response rating” value [20, 29] was 50. The “Plant response rating (0 to 100 scale), Corn” value [20, 30] was 90, the “Plant response rating (0 to 100 scale), Pigweed, Palmer” value ([21]; 31 g ai/ha Preemergence) was 100 and the “Plant response rating (0 to 100 scale), Pigweed, Palmer” value ([21]; 125 g ai/ha Preemergence) was 100. The “Goosegrass plant response rating” value [22, 29] was 80, the “Plant response rating (0 to 100 scale), Goosegrass” value [22, 30] was 100 and the “Galium plant response rating” value [23, 29] was 100. The “Plant response rating (0 to 100 scale), Galium” value [23, 30] was 100, the “Plant response rating (0 to 100 scale), Ragweed” value ([24]; 31 g ai/ha Preemergence) was 90 and the “Plant response rating (0 to 100 scale), Ragweed” value ([24]; 125 g ai/ha Preemergence) was 100. The “Plant response rating (0 to 100 scale), Goosegrass” value ([25]; 31 g ai/ha Preemergence) was 90, the “Plant response rating (0 to 100 scale), Goosegrass” value ([25]; 125 g ai/ha Preemergence) was 100 and the “Plant response rating (0 to 100 scale), Oat, Wild” value ([26]; 31 g ai/ha Preemergence) was 60. The “Plant response rating (0 to 100 scale), Oat, Wild” value ([26]; 125 g ai/ha Preemergence) was 100, the “Plant response rating (0 to 100 scale), Foxtail, Giant” value ([27]; 31 g ai/ha Preemergence) was 90 and the “Plant response rating (0 to 100 scale), Foxtail, Giant” value ([27]; 125 g ai/ha Preemergence) was 100. For the same compound, the “Plant response rating (0 to 100 scale), Soybean” value ([28]; 31 g ai/ha Preemergence) was 70 and the “Plant response rating (0 to 100 scale), Soybean” value ([28]; 125 g ai/ha Preemergence) was 90.
